The values that follow are results of earlier work, collected in publication PMC7179450, “Primary Human Hepatocytes, But not HepG2 or Balb/c 3T3 Cells, Efficiently Metabolize Salinomycin and Are Resistant to Its Cytotoxicity” (Molecules, 2020).

Read-outs that look alike come from different tables or passages of the source.

The series relates to all tested cell models. Details: method as in PMID 30012479. As to conditions: cited from earlier work.

`C[C@]12C=CC(=O)C=C1CC[C@@H]1[C@@H]2[C@@H](O)C[C@@]2(C)[C@H]1CC[C@]2(O)C(=O)CO` [prednisolone]: where the note is “prednisolone 1 µg/mL”, the “cytotoxicity at tested concentrations” value is “non-cytotoxic”. With `C=C[C@]1(C)C[C@@H](OC(=O)CSCCN(CC)CC)[C@]2(C)[C@H](C)CC[C@]3(CCC(=O)[C@H]32)[C@@H](C)[C@@H]1O` [tiamulin], where the note is “tiamulin 1 or 10 µg/mL”, the “cytotoxicity at tested concentrations” value is “non-cytotoxic”.
